Assay results from publication PMC7750190, “GapB Is Involved in Biofilm Formation Dependent on LrgAB but Not the SinI/R System in Bacillus cereus 0-9” (Frontiers in Microbiology, 2020).

Target: T1, GapB (Bacillus cereus, UniProt Q817G8)
T1 construct: gene BC_4583; full gapB gene in pET28a, GapB-His6, E. coli BL21 (DE3), Ni-IMAC and Superdex 200, 42 kDa by SDS-PAGE
Experiment: NAD(P)H production at […] nm
Format: biochemical
Settings: 20 mM glyceraldehyde-3-phosphate, 50 mM Na2HPO4, 5 mM EDTA, pH 7.5, 37°C, 30 min

T1 sequence (Q817G8 entry or part of it): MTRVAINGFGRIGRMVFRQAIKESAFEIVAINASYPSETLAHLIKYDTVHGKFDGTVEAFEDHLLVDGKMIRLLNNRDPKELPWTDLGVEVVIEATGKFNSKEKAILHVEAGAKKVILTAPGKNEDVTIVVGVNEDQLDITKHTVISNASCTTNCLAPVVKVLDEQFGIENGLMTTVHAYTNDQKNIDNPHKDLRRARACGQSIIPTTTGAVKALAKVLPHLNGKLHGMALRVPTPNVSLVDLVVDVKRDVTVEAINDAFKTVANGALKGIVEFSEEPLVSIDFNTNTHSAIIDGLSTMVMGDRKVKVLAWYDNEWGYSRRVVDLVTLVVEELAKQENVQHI

Row | SMILES | NAD(P)H production at 340 nm (10 mM NAD+) | NAD(P)H production at 340 nm (2 mM NADP+)
1 | NC(=O)c1ccc[n+]([C@@H]2O[C@H](COP(=O)(O)OP(=O)(O)OC[C@H]3O[C@@H](n4cnc5c(N)ncnc54)[C@H](O)[C@@H]3O)[C@@H](O)[C@H]2O)c1 [NAD^+] | GapB protein has enzyme activities with either NAD^+ or NADP^+ as a cofactor | –
2 | NC(=O)c1ccc[n+]([C@@H]2O[C@H](COP(=O)(O)OP(=O)(O)OC[C@H]3O[C@@H](n4cnc5c(N)ncnc54)[C@H](OP(=O)(O)O)[C@@H]3O)[C@@H](O)[C@H]2O)c1 [NADP^+] | – | GapB protein has enzyme activities with either NAD^+ or NADP^+ as a cofactor
